The values that follow come from US9980943B2, “Methods of treating muscular dystrophy” (BOARD OF REGENTS OF THE NEVADA SYSTEM OF HIGHER EDUCATION, …, priority 2013, dated 2018).

Common to all, as to format: cell-based, mouse
Assay [1] deals with α7 integrin (LacZ reporter in α7βgal+/− myoblasts). Nature of the assay: Myoblast α7+/LacZ integrin FDG assay (Burkin assay in myoblasts, 96-well). As to conditions: 96-well; for Burkin Assay in Myoblasts, signal relative to DMSO: α7+/LacZ myoblasts; for Burkin Assay in Myoblasts, value relative to DMSO: SU9516 analogs, N=3-6.
The test system of assay [2] is α7 integrin (LacZ reporter in α7+/LacZ myotubes). The assay can be described thus: Myotube α7 integrin FDG assay (Burkin assay in myotubes, 96-well). The settings on record: for Burkin Assay in Myotubes, value relative to DMSO: SU9516 analogs, 96-well, N=3-6.
Assay [3] concerns β-galactosidase in CMV-LacZ C2C12 myoblasts. The assay can be described thus: CMV-LacZ secondary screen in C2C12 myoblasts (β-Gal stabilizing assay). As to conditions: for CMV-LACZ in Myoblasts (β-galactosidase activity relative to DMSO): CMV-LacZ C2C12 myoblasts; for CMV-LACZ in Myoblasts, value relative to DMSO: SU9516 analogs, C2C12 CMV-LacZ, N=2. In short, it runs like this:
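Stable CMV-LacZ C2C12 clone; six-point curve 0.5–40 μM; duplicates.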

The subject of assay [4] is β-galactosidase in CMV-LacZ C2C12 myotubes. Nature of the assay: CMV-LacZ secondary screen in C2C12 myotubes (β-Gal stabilizing assay). As to conditions: for CMV-LACZ in Myotubes, signal relative to DMSO: C2C12 CMV-LacZ myotubes, fold relative to DMSO; for CMV-LACZ in Myotubes, value relative to DMSO: SU9516 analogs, C2C12 CMV-LacZ, N=2. Put shortly: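 A secondary screen identifies compounds that stabilize β-gal independently of the native promoter, using CMV-LacZ C2C12 cells. Curves span 0.5–40 μM at six levels, in duplicate.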

For the compound `c1ccc(-c2nn[nH]n2)nc1` [MLS000767397-01], the “Burkin Assay in Myoblasts, signal relative to DMSO” value in assay [1] (0.5 uM) is on record as 0.8862; in assay [1] (1 uM), 0.839; in assay [1] (5 uM) it was 1.476; in assay [1] (10 uM), 0.9334; in assay [1] (20 uM), 1.613; in assay [1] (40 uM), 0.9754. Besides, the “Burkin Assay in Myotubes, α7 integrin LacZ reporter signal relative to DMSO” value in assay [2] (0.5 uM) is on record as 0.9294; in assay [2] (1 uM), 0.9481; in assay [2] (5 uM), 1.004; in assay [2] (10 uM) it was 1.0608; in assay [2] (20 uM), 0.9993; in assay [2] (40 uM), 1.014. Further, the “CMV-LACZ in Myoblasts (β-galactosidase activity relative to DMSO)” value in assay [3] (0.5 uM) was determined as 1.2748; in assay [3] (1 uM), 1.0646; in assay [3] (5 uM), 0.9910; in assay [3] (10 uM), 0.9687; in assay [3] (20 uM) it was 0.8485; in assay [3] (40 uM), 1.1433. The “CMV-LACZ in Myotubes, signal relative to DMSO” value was 0.8737 in assay [4] (0.5 uM); 1.0368 in assay [4] (1 uM); 0.9425 in assay [4] (5 uM); 0.9519 in assay [4] (10 uM); 1.0144 in assay [4] (20 uM); 1.0067 in assay [4] (40 uM).

On to `COc1cc(OC)c(/C=C2/C(=O)Nc3ccccc32)c(OC)c1` [NCGC00015546-04], for which the “Burkin Assay in Myoblasts, value relative to DMSO” value in assay [1] (0.5 uM) is reported as 0.8923; in assay [1] (1 uM), 0.9228; in assay [1] (5 uM) it was 0.3771; in assay [1] (10 uM), 0.214; in assay [1] (20 uM), 0.1937; in assay [1] (40 uM), 0.1497. Also, the “Burkin Assay in Myotubes, value relative to DMSO” value in assay [2] (0.5 uM) was found to be 0.9443; in assay [2] (1 uM), 1.051; in assay [2] (5 uM) it was 0.8529; in assay [2] (10 uM) it was 0.8253; in assay [2] (20 uM) it was 0.7881; in assay [2] (40 uM), 0.7965. For the same compound, the “CMV-LACZ in Myoblasts, value relative to DMSO” value is 1.1442 in assay [3] (0.5 uM); 1.4889 in assay [3] (5 uM); 1.2439 in assay [3] (10 uM); 0.8083 in assay [3] (20 uM); 0.5873 in assay [3] (40 uM). In addition, the “CMV-LACZ in Myotubes, value relative to DMSO” value in assay [4] (0.5 uM) worked out at 1.1555; in assay [4] (1 uM) it was 1.1427; in assay [4] (5 uM) it was 1.0553; in assay [4] (10 uM), 1.1513; in assay [4] (20 uM), 1.0230; in assay [4] (40 uM), 1.0700.

As for `CCN(CC(=O)NCc1cccs1)C(=O)COc1ccc(C(N)=O)cc1` [MLS002163101-01], the “Burkin Assay in Myoblasts, signal relative to DMSO” value in assay [1] (0.5 uM) stood at 0.9552; in assay [1] (1 uM), 0.9442; in assay [1] (5 uM), 0.9699; in assay [1] (10 uM) it was 1.251; in assay [1] (20 uM), 0.9457; in assay [1] (40 uM), 0.9775. Besides, the “Burkin Assay in Myotubes, α7 integrin LacZ reporter signal relative to DMSO” value in assay [2] (0.5 uM) is reported as 1.045; in assay [2] (1 uM) it was 0.9075; in assay [2] (5 uM), 1.101; in assay [2] (10 uM), 1.302; in assay [2] (20 uM) it was 0.7782; in assay [2] (40 uM), 0.9761. For the same compound, the “CMV-LACZ in Myoblasts (β-galactosidase activity relative to DMSO)” value in assay [3] (0.5 uM) was found to be 0.9991; in assay [3] (1 uM), 1.0317; in assay [3] (5 uM), 1.0262; in assay [3] (10 uM), 1.0313; in assay [3] (20 uM), 0.9644; in assay [3] (40 uM), 1.1556. Also, the “CMV-LACZ in Myotubes, signal relative to DMSO” value in assay [4] (0.5 uM) is 1.0533; in assay [4] (1 uM), 1.1400; in assay [4] (5 uM), 0.8302; in assay [4] (10 uM), 0.8407; in assay [4] (20 uM), 0.9212; in assay [4] (40 uM) it was 1.5447.

With `Br.COc1ccc(C(=O)CN2CCCCC2)cc1` [MLS001004864-01], the “Burkin Assay in Myoblasts, signal relative to DMSO” value in assay [1] (0.5 uM) was 1.1396; in assay [1] (1 uM), 1.193; in assay [1] (5 uM) it was 1.109; in assay [1] (10 uM), 1.023; in assay [1] (20 uM), 1.105; in assay [1] (40 uM) it was 0.8883. Besides, the “Burkin Assay in Myotubes, α7 integrin LacZ reporter signal relative to DMSO” value is given as 0.949 in assay [2] (0.5 uM); 1.025 in assay [2] (1 uM); 0.9784 in assay [2] (5 uM); 0.9618 in assay [2] (10 uM); 0.6075 in assay [2] (20 uM); 0.376 in assay [2] (40 uM). For the same compound, the “CMV-LACZ in Myoblasts (β-galactosidase activity relative to DMSO)” value in assay [3] (0.5 uM) amounted to 1.2650; in assay [3] (1 uM), 0.9288; in assay [3] (5 uM), 1.2276; in assay [3] (10 uM), 1.0417; in assay [3] (20 uM), 1.2930; in assay [3] (40 uM), 0.9933. The “CMV-LACZ in Myotubes, signal relative to DMSO” value came out at 0.9657 in assay [4] (0.5 uM); 0.9610 in assay [4] (1 uM); 1.0697 in assay [4] (5 uM); 0.9501 in assay [4] (10 uM); 0.9653 in assay [4] (20 uM); 0.8884 in assay [4] (40 uM).

For `COc1ccc(C(=O)Nc2ccc(Cl)cn2)cc1Cl` [MLS000089748-01], the “Burkin Assay in Myoblasts, signal relative to DMSO” value in assay [1] (0.5 uM) was determined as 1.145; in assay [1] (1 uM), 1.168; in assay [1] (5 uM), 0.8656; in assay [1] (10 uM), 0.7355; in assay [1] (20 uM), 0.2402; in assay [1] (40 uM), 0.1766. In addition, the “Burkin Assay in Myotubes, α7 integrin LacZ reporter signal relative to DMSO” value stood at 1.043 in assay [2] (0.5 uM); 0.9139 in assay [2] (1 uM); 0.8675 in assay [2] (5 uM); 0.8026 in assay [2] (10 uM); 0.7715 in assay [2] (20 uM); 0.7415 in assay [2] (40 uM). The “CMV-LACZ in Myoblasts (β-galactosidase activity relative to DMSO)” value in assay [3] (0.5 uM) was 1.2129; in assay [3] (1 uM), 0.8592; in assay [3] (5 uM), 1.0665; in assay [3] (10 uM), 0.9905; in assay [3] (20 uM) it was 0.3140; in assay [3] (40 uM), 0.4437. Further, the “CMV-LACZ in Myotubes, signal relative to DMSO” value is listed as 0.9527 in assay [4] (0.5 uM); 0.9809 in assay [4] (1 uM); 1.1104 in assay [4] (5 uM); 0.9813 in assay [4] (10 uM); 1.3800 in assay [4] (20 uM); 1.2820 in assay [4] (40 uM).
